Experimental data: patent publication US9073855B2, “BCL-2 selective apoptosis-inducing agents for the treatment of cancer and immune diseases” (AbbVie Inc., priority 2008, dated 2015)

Legend:
GST-Bcl-2 = GST-Bcl-2 (Homo sapiens, UniProt P10415); assay: TR-FRET binding assay, GST-Bcl-2 with F-Bak peptide probe; conditions: for Ki: TR-FRET Binding Affinity
Summary of the method: (§1)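 Displacement of a fluorescein-labelled Bak peptide from the GST-tagged protein was followed by time-resolved FRET with a terbium anti-GST donor after 3 h incubation at room temperature. Inhibition constants were calculated with Wang's equation.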

GST-Bcl-XL = GST-Bcl-XL (Homo sapiens, UniProt Q07817); assay: TR-FRET binding assay, GST-Bcl-XL with F-Bak peptide probe; conditions: TR-FRET Binding Affinity
Summary of the method: as §1

[1] = GST-Bcl-XL, F-Bak peptide probe
[2] = TR-FRET, Bcl-XL Ki divided by Bcl-2 Ki
[3] = ratio of TR-FRET Ki values, Bcl-XL over Bcl-2

Chain of GST-Bcl-2 (P10415 whole entry): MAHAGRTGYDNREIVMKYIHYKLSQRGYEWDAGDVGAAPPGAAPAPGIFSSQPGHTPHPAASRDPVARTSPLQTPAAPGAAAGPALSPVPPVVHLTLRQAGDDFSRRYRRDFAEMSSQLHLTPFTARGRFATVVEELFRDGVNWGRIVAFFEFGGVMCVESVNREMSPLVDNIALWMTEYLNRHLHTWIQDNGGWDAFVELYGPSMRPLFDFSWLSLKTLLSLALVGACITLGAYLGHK
Chain of GST-Bcl-XL (Q07817 whole entry): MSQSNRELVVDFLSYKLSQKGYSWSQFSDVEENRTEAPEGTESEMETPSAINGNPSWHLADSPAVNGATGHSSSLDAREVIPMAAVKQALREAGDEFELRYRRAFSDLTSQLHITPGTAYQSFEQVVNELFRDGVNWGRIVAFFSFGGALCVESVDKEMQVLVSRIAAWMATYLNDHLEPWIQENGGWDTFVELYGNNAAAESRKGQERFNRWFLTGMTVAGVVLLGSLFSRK

Row | Compound | Ki (GST-Bcl-2; GST-Bcl-2, F-Bak peptide probe) [nM] | Ki (GST-Bcl-XL; [1]) [nM] | Ki (GST-Bcl-2) [nM] | Ki (GST-Bcl-XL) [nM] | Binding selectivity ratio (Bcl-XL Ki/Bcl-2 Ki) (GST-Bcl-2; [2]) | Binding selectivity ratio (Bcl-XL Ki/Bcl-2 Ki) (GST-Bcl-2; [3])
1 | CN(C)CCCOc1ccc(-c2ccc(Cl)cc2)c(CN2CCN(c3ccc(C(=O)NS(=O)(=O)c4ccc(NCC5CCOCC5)c(S(=O)(=O)C(F)(F)F)c4)c(Oc4ccccc4)c3)CC2)c1 [Example 119, 4-[4-({4′-chloro-4-[3-(dimethylamino)propoxy]-1,1′-biphenyl-2-yl}methyl)piperazin-1-yl]-2-phenoxy-N-({4-[(tetrahydro-2H-pyran-4-ylmethyl)amino]-3-[(trifluoromethyl)sulfonyl]phenyl}sulfonyl)benzamide] | 0.622 | 230 |  |  |  | 
2 | CO[C@H]1CC[C@H](CNc2ccc(S(=O)(=O)NC(=O)c3ccc(N4CCN(CC5=C(c6ccc(Cl)cc6)CC(C)(C)CC5)CC4)cc3Oc3cccc4[nH]cnc34)cc2[N+](=O)[O-])CC1 [Example 440, Trans-2-(1H-benzimidazol-4-yloxy)-4-(4-{[2-(4-chlorophenyl)-4,4-dimethylcyclohex-1-en-1-yl]methyl}piperazin-1-yl)-N-[(4-{[(4-methoxycyclohexyl)methyl]amino}-3-nitrophenyl)sulfonyl]benzamide] |  |  | < 0.01 | 45.5 |  | 
3 | CN1CCN(CCNc2ccc(S(=O)(=O)NC(=O)c3ccc(N4CCN(CC5=C(c6ccc(Cl)cc6)CC(C)(C)CC5)CC4)cc3Oc3cccc4[nH]ccc34)cc2[N+](=O)[O-])CC1 [Example 101, 4-(4-{[2-(4-chlorophenyl)-4,4-dimethylcyclohex-1-en-1-yl]methyl}piperazin-1-yl)-2-(1H-indol-4-yloxy)-N-[(4-{[2-(4-methylpiperazin-1-yl)ethyl]amino}-3-nitrophenyl)sulfonyl]benzamide] | 0.092 | 11.2 |  |  |  | 
4 | CC1(C)CCC(CN2CCN(c3ccc(C(=O)NS(=O)(=O)c4cnc(OCC5(F)CCOCC5)c(F)c4)c(Oc4cccc5[nH]ncc45)c3)CC2)=C(c2ccc(Cl)cc2)C1 [Example 416, 4-(4-{[2-(4-chlorophenyl)-4,4-dimethylcyclohex-1-en-1-yl]methyl}piperazin-1-yl)-N-({5-fluoro-6-[(4-fluorotetrahydro-2H-pyran-4-yl)methoxy]pyridin-3-yl}sulfonyl)-2-(1H-indazol-4-yloxy)benzamide] | 0.023 | 59.1 |  |  |  | 
5 | CC1(C)CCC(CN2CCN(c3ccc(C(=O)NS(=O)(=O)c4ccc(NC[C@H]5CN(C6CC6)CCO5)c([N+](=O)[O-])c4)c(Oc4cccc5[nH]nnc45)c3)CC2)=C(c2ccc(Cl)cc2)C1 [Example 527, 2-(1H-benzotriazol-4-yloxy)-4-(4-{[2-(4-chlorophenyl)-4,4-dimethylcyclohex-1-en-1-yl]methyl}piperazin-1-yl)-N-{[4-({[(2S)-4-cyclopropylmorpholin-2-yl]methyl}amino)-3-nitrophenyl]sulfonyl}benzamide] |  |  | < 0.01 | 4.22 | >421.9 | 
6 | CN(C)CCCNc1ccc(S(=O)(=O)NC(=O)c2ccc(N3CCN(Cc4ccccc4-c4ccc(Cl)cc4)CC3)cc2Oc2ccccc2)cc1C#N [Example 90, 4-{4-[(4′-chloro-1,1′-biphenyl-2-yl)methyl]piperazin-1-yl}-N-[(3-cyano-4-{[3-(dimethylamino)propyl]amino}phenyl)sulfonyl]-2-phenoxybenzamide] | 2.13 | 284 |  |  |  | 
7 | CC1(C)CCC(CN2CCN(c3ccc(C(=O)NS(=O)(=O)c4ccc(NCC5COCCO5)c([N+](=O)[O-])c4)c(Oc4cccc5[nH]cnc45)c3)CC2)=C(c2ccc(Cl)cc2)C1 (stereo not drawn) [Example 450, 2-(1H-benzimidazol-4-yloxy)-4-(4-{[2-(4-chlorophenyl)-4,4-dimethylcyclohex-1-en-1-yl]methyl}piperazin-1-yl)-N-({4-[(1,4-dioxan-2-ylmethyl)amino]-3-nitrophenyl}sulfonyl)benzamide] |  |  | 0.299 | 32.1 | 107.3 | 
8 | O=C(NS(=O)(=O)c1ccc(NCC2CCOCC2)c(S(=O)(=O)C(F)(F)F)c1)c1ccc(N2CCN(Cc3ccccc3-c3ccc(Cl)cc3)CC2)cc1Oc1ccc2[nH]ccc2c1 [Example 62, 4-{4-[(4′-chloro-1,1′-biphenyl-2-yl)methyl]piperazin-1-yl}-2-(1H-indol-5-yloxy)-N-({4-[(tetrahydro-2H-pyran-4-ylmethyl)amino]-3-[(trifluoromethyl)sulfonyl]phenyl}sulfonyl)benzamide] | 3.52 | 571 |  |  |  | 
9 | CN(C)CC(=O)N1CCO[C@H](COc2ncc(S(=O)(=O)NC(=O)c3ccc(N4CCN(CC5=C(c6ccc(Cl)cc6)CC(C)(C)CC5)CC4)cc3Oc3cccc4[nH]ncc34)cc2Cl)C1 [Example 425, N-[(5-chloro-6-{[(2S)-4-(N,N-dimethylglycyl)morpholin-2-yl]methoxy}pyridin-3-yl)sulfonyl]-4-(4-{[2-(4-chlorophenyl)-4,4-dimethylcyclohex-1-en-1-yl]methyl}piperazin-1-yl)-2-(1H-indazol-4-yloxy)benzamide] | 0.003 | 3.99 |  |  |  | 1282.2
10 | O=C(NS(=O)(=O)c1ccc(NCC2CCOCC2)c([N+](=O)[O-])c1)c1ccc(N2CCN(Cc3ccccc3-c3ccc(Cl)cc3)CC2)cc1Oc1cccnc1 [Example 79, 4-{4-[(4′-chloro-1,1′-biphenyl-2-yl)methyl]piperazin-1-yl}-N-({3-nitro-4-[(tetrahydro-2H-pyran-4-ylmethyl)amino]phenyl}sulfonyl)-2-(pyridin-3-yloxy)benzamide] | 2.05 | 97.2 |  |  |  | 
11 | CC(C)N(C)CCCNc1ccc(S(=O)(=O)NC(=O)c2ccc(N3CCN(Cc4ccccc4-c4ccc(Cl)cc4)CC3)cc2Oc2ccccc2)cc1[N+](=O)[O-] [Example 93, 4-{4-[(4′-chloro-1,1′-biphenyl-2-yl)methyl]piperazin-1-yl}-N-{[4-({3-[isopropyl(methyl)amino]propyl}amino)-3-nitrophenyl]sulfonyl}-2-phenoxybenzamide] | 0.231 | 13.9 |  |  |  | 
12 | CN(C)CC(=O)N1CCO[C@@H](CNc2ccc(S(=O)(=O)NC(=O)c3ccc(N4CCN(CC5=C(c6ccc(Cl)cc6)CC(C)(C)CC5)CC4)cc3Oc3cccc4[nH]cnc34)cc2[N+](=O)[O-])C1 [Example 438, 2-(1H-benzimidazol-4-yloxy)-4-(4-{[2-(4-chlorophenyl)-4,4-dimethylcyclohex-1-en-1-yl]methyl}piperazin-1-yl)-N-{[4-({[(2S)-4-(N,N-dimethylglycyl)morpholin-2-yl]methyl}amino)-3-nitrophenyl]sulfonyl}benzamide] |  |  | < 0.01 | 0.345 |  | 
13 | CN(C)CCCOc1ccc(-c2ccc(Cl)cc2)c(CN2CCN(c3ccc(C(=O)NS(=O)(=O)c4ccc(NCC5CCOCC5)c([N+](=O)[O-])c4)c(Oc4ccccc4)c3)CC2)c1 [Example 116, 4-[4-({4′-chloro-4-[3-(dimethylamino)propoxy]-1,1′-biphenyl-2-yl}methyl)piperazin-1-yl]-N-({3-nitro-4-[(tetrahydro-2H-pyran-4-ylmethyl)amino]phenyl}sulfonyl)-2-phenoxybenzamide] | 0.036 | 8.3 |  |  |  | 
14 | CC1(C)CCC(CN2CCN(c3ccc(C(=O)NS(=O)(=O)c4ccc(NC5(CO)CCOCC5)c([N+](=O)[O-])c4)c(Oc4cccc5[nH]ccc45)c3)CC2)=C(c2ccc(Cl)cc2)C1 [Example 241, 4-(4-{[2-(4-chlorophenyl)-4,4-dimethylcyclohex-1-en-1-yl]methyl}piperazin-1-yl)-N-[(4-{[4-(hydroxymethyl)tetrahydro-2H-pyran-4-yl]amino}-3-nitrophenyl)sulfonyl]-2-(1H-indol-4-yloxy)benzamide] | 6.09 | > 660 |  |  |  | 
15 | O=C(NS(=O)(=O)c1ccc(NCC2CCOCC2)c([N+](=O)[O-])c1)c1ccc(N2CCN(Cc3ccccc3-c3ccc(Cl)cc3)CC2)cc1Oc1ccccc1 [Example 1, 4-{4-[(4′-chloro-1,1′-biphenyl-2-yl)methyl]piperazin-1-yl}-N-({3-nitro-4-[(tetrahydro-2H-pyran-4-ylmethyl)amino]phenyl}sulfonyl)-2-phenoxybenzamide] | 6.77 | 578 |  |  |  | 
16 | CC1(C)CCC(CN2CCN(c3ccc(C(=O)NS(=O)(=O)c4cnc(OC[C@@H]5CN(C6CC6)CCO5)c(Cl)c4)c(Oc4cccc5[nH]cnc45)c3)CC2)=C(c2ccc(Cl)cc2)C1 [Example 503, 2-(1H-benzimidazol-4-yloxy)-N-[(5-chloro-6-{[(2S)-4-cyclopropylmorpholin-2-yl]methoxy}pyridin-3-yl)sulfonyl]-4-(4-{[2-(4-chlorophenyl)-4,4-dimethylcyclohex-1-en-1-yl]methyl}piperazin-1-yl)benzamide] |  |  | 0.062 | 147 | 2356.5 | 
17 | CC1(C)CCC(CN2CCN(c3ccc(C(=O)NS(=O)(=O)c4cnc(O[C@@H]5CCN(CC(F)F)C5)c(Cl)c4)c(Oc4cccc5[nH]ncc45)c3)CC2)=C(c2ccc(Cl)cc2)C1 [Example 422, N-[(5-chloro-6-{[(3R)-1-(2,2-difluoroethyl)pyrrolidin-3-yl]oxy}pyridin-3-yl)sulfonyl]-4-(4-{[2-(4-chlorophenyl)-4,4-dimethylcyclohex-1-en-1-yl]methyl}piperazin-1-yl)-2-(1H-indazol-4-yloxy)benzamide] | 0.071 | 290 |  |  |  | 4073.4
18 | CC1(O)CCC(COc2ncc(S(=O)(=O)NC(=O)c3ccc(N4CCN(CC5=C(c6ccc(Cl)cc6)CCC(F)(F)C5)CC4)cc3Oc3cccc4[nH]ncc34)cc2Cl)CC1 (stereo not drawn) [Example 531, N-({5-chloro-6-[(trans-4-hydroxy-4-methylcyclohexyl)methoxy]pyridin-3-yl}sulfonyl)-4-(4-{[2-(4-chlorophenyl)-5,5-difluorocyclohex-1-en-1-yl]methyl}piperazin-1-yl)-2-(1H-indazol-4-yloxy)benzamide] |  |  | < 0.01 | 12.6 | >1257.8 | 
